# Assay results from US20210308196A1, “COMPOSITIONS AND METHODS TO PROMOTE HOST DEFENSE AND STIMULATE, EXPAND, AND/OR RESET T CELL REPERTOIRES” (EVOLVE BIOSYSTEMS, INC., priority 2018, published 2021).
# Tests used:
# [1] = Safety and tolerability of B. infantis EVC001 supplementation in healthy term nursing infants; format: in vivo, human; conditions: healthy term breastfed infants
# Method: This trial was designed to show the effect of probiotic supplementation with Bifidobacterium longum subsp. Infantis (B. infantis EVC001) in healthy, term, nursing infants compared to an unsupplemented group. A dry composition of lactose and activated Bifidobacterium longum subsp. infantis was prepared starting with the cultivation of a purified isolate (Strain EVC001 ATCC Accession No. PTA-125180, Evolve Biosystems Inc., Davis, Calif., isolated from a human infant fecal sample) in the presence of BMO according to International Patent Application No. PCT/US2015/057226. […] This concentrated powder was then diluted by blending with infant formula grade lactose to an activity level of about 30 Billion CFU/g. This composition then was loaded into individual sachets at about 0.625 g/sachet and provided to breast-fed infants starting on or about day 7 of life and then provided on a daily basis for the subsequent 21 days.
# This was a 60-day study starting with infants' date of birth as Day 1. […]
# Infant fecal samples were collected throughout the 60-day trial. […] Safety and tolerability were determined from maternal reports of infants' feeding, stooling frequency, and consistency (using a modified Amsterdam infant stool scale—watery, soft, formed, hard; Bekkali et al. 2009), as well as GI symptoms and health outcomes. […]
# [2] = Bacterial growth and oligosaccharide use in HMO, LNnT or FOS media (growth curves, HPLC); conditions: compared to other Bifidobacterium and Lactobacillus strains
# Method: Little is known about the anti-inflammatory effects B. infantis-derived metabolites have on intestinal epithelial cells and how they might protect and maintain mucosal integrity in the infant gut. To investigate whether metabolites from B. infantis grown on HMO and synthetic HMOs can provide protective effects against pathogen-induced inflammation and maintain mucosal integrity compared to other commensal strains that have been previously characterized. B. infantis, B. breve, B. bifidum, and B. longum were grown in media containing pooled HMOs, synthetic Lacto-N-neotetraose (LNnT), or fructo-oligosaccharide (FOS, a readily available oligosaccharide commonly used in baby formulas). Four Lactobacillus plantarum strains were also grown in HMO, LNnT, and FOS media. Spent supernatant was collected and filtered after 48 hours of growth (when the bacteria reached the stationary phase) and evaluated for the remaining oligosaccharide concentration. […] After overnight incubation, cell supernatant was analyzed by ELISA for reductions in pro-inflammatory cytokines, including IL-8 and TNF-alpha. […]
substance,measurement,setting,value
Bifidobacterium longum subsp. infantis EVC001 [B. infantis EVC001],Adverse events versus unsupplemented group,[1]; 60-day study,not different between groups
same,Tolerability,[1]; at least 1.8×10^10 cfu once daily for 21 days from Day 7,well-tolerated
same,Growth in HMOs (growth curves),[2],selective growth advantage
